Key:
Assay in all cases: relative viability (nuclei count vs DMSO), 5 days (fraction); higher = more cells survive
[1] = compound: CC(=O)Nc1cccc(-n2c(=O)n(C3CC3)c(=O)c3c(Nc4ccc(I)cc4F)n(C)c(=O)c(C)c32)c1 [Trametinib] + N=C(N)NC(=N)NCCc1ccccc1 [Phenformin] (partner 250 µM)
Outline: (§1)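 Lung cancer cell lines in 1536-well plates got either a single drug or a fixed anchor-drug dose together with five library-drug doses (not always all listed) in √10 steps, by pin tool, on the day after seeding. Nuclei were counted after 5 days, and relative viability is the treated-to-vehicle ratio of nuclei counts. Values are medians of duplicate plates.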

[2] = compound: CN1C=C(C2=CC=CC=C21)/C=C\3/C4=C(C=CC=N4)NC3=O + Cc1nc(NC(=O)N2CCC[C@H]2C(N)=O)sc1-c1ccnc(C(C)(C)C(F)(F)F)c1 [Alpelisib] (partner 2 µM)
Outline: as §1

[3] = compound: CN1C=C(C2=CC=CC=C21)/C=C\3/C4=C(C=CC=N4)NC3=O + CC(=O)c1c(C)c2cnc(Nc3ccc(N4CCNCC4)cn3)nc2n(C2CCCC2)c1=O [Palbociclib] (partner 0.5 µM)
Outline: as §1

[4] = compound: CC(=O)Nc1cccc(-n2c(=O)n(C3CC3)c(=O)c3c(Nc4ccc(I)cc4F)n(C)c(=O)c(C)c32)c1 [Trametinib] + O=C(CCCCCCC(=O)Nc1ccccc1)NO [Vorinostat] (partner 1 µM)
Outline: as §1

Row | Cell Line | relative viability ([1]; first compound 0.0025 µM) | relative viability ([1]; first compound 0.007906 µM) | relative viability ([1]; first compound 0.025 µM) | relative viability ([1]; first compound 0.07906 µM) | relative viability ([1]; first compound 0.25 µM) | relative viability ([2]; first compound 0.02 µM) | relative viability ([2]; first compound 0.06325 µM) | relative viability ([2]; first compound 0.2 µM) | relative viability ([2]; first compound 0.6325 µM) | relative viability ([2]; first compound 2 µM) | relative viability ([3]; first compound 0.02 µM) | relative viability ([3]; first compound 0.06325 µM) | relative viability ([3]; first compound 0.2 µM) | relative viability ([3]; first compound 0.6325 µM) | relative viability ([3]; first compound 2 µM) | relative viability ([4]; first compound 0.0025 µM) | relative viability ([4]; first compound 0.007906 µM) | relative viability ([4]; first compound 0.025 µM) | relative viability ([4]; first compound 0.07906 µM) | relative viability ([4]; first compound 0.25 µM)
1 | NCI-H520 | 0.543 | 0.666 | 0.392 | 0.608 | 0.199 | 0.796 | 0.69 | 0.859 | 1.02 | 1.04 | 0.261 | 0.227 | 0.219 | 0.218 | 0.218 | 0.868 | 0.733 | 0.68 | 0.691 | 0.532
2 | NCI-H2405 | 0.326 | 0.316 | 0.28 | 0.202 | 0.251 | 0.654 | 0.776 | 0.769 | 0.842 | 0.7 | 0.576 | 0.526 | 0.524 | 0.535 | 0.541 | 0.985 | 0.853 | 0.649 | – | 0.601
3 | LCLC-97TM1 | 0.415 | 0.448 | 0.383 | 0.301 | 0.288 | 0.205 | – | – | 0.208 | 0.202 | – | 0.156 | 0.201 | 0.203 | 0.261 | 0.722 | 0.701 | 0.435 | 0.225 | 0.0816
4 | NCI-H727 | 0.32 | 0.359 | 0.406 | 0.257 | 0.264 | 0.48 | 0.533 | 0.307 | 0.466 | 0.604 | 0.63 | 0.575 | 0.653 | 0.652 | 0.623 | 0.961 | 0.851 | 0.424 | 0.387 | 0.382
5 | NCI-H2228 | 0.319 | 0.225 | 0.152 | 0.161 | 0.138 | 0.718 | 0.645 | – | 0.919 | 0.674 | 0.744 | 0.572 | 0.394 | 0.769 | 0.906 | 0.673 | 0.87 | 0.766 | 0.426 | 0.309
6 | LK-2 | 0.433 | 0.649 | 0.379 | 0.35 | 0.142 | – | 0.766 | 0.76 | 0.943 | 0.61 | 0.232 | 0.421 | 0.447 | 0.576 | 0.678 | 0.346 | 0.288 | 0.164 | 0.344 | 0.326
7 | PC-3 [JPC-3] | 0.46 | 0.463 | 0.427 | 0.405 | 0.373 | 1.02 | 0.99 | 1.03 | 1.03 | 0.989 | 0.535 | 0.521 | 0.545 | 0.562 | 0.515 | 0.82 | 0.722 | 0.557 | – | 0.53
8 | NCI-H460 | 0.502 | 0.332 | 0.237 | 0.135 | 0.041 | 0.539 | 0.466 | 0.53 | – | 0.391 | 0.209 | 0.153 | 0.0627 | 0.103 | 0.157 | 0.621 | 0.482 | 0.376 | 0.12 | 0.0929
9 | NCI-H647 | 0.554 | 0.561 | 0.507 | 0.333 | 0.148 | 0.977 | 0.948 | 0.904 | 0.951 | 1.14 | 0.367 | 0.354 | 0.292 | 0.37 | 0.348 | 0.634 | 0.562 | 0.642 | 0.465 | 0.196

Source: the supplement of paper PMC10307832
